In patent US9980943B2, “Methods of treating muscular dystrophy” (BOARD OF REGENTS OF THE NEVADA SYSTEM OF HIGHER EDUCATION, …, priority 2013, dated 2018):

Assays:
Type in all cases: cell-based, mouse
[1] = test system: α7 integrin (LacZ reporter in α7βgal+/− myoblasts); experiment: Myoblast α7+/LacZ integrin FDG assay (Burkin assay in myoblasts, 96-well); conditions: α7+/LacZ myoblasts, 96-well
[2] = test system: α7 integrin (LacZ reporter in α7+/LacZ myotubes); experiment: Myotube α7 integrin FDG assay (Burkin assay in myotubes, 96-well); conditions: myotubes
[3] = test system: β-galactosidase in CMV-LacZ C2C12 myotubes; experiment: CMV-LacZ secondary screen in C2C12 myotubes (β-Gal stabilizing assay); conditions: for CMV-LACZ in Myotubes, signal relative to DMSO: C2C12 CMV-LacZ myotubes, fold relative to DMSO; for CMV-LACZ in Myotubes (β-galactosidase activity relative to DMSO): CMV-LacZ C2C12 myotubes, 96-well format
In short: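 β-gal stabilization was measured in C2C12 myoblasts or myotubes stably transfected with a CMV-driven LacZ construct, using the FDG β-gal assay. Compounds were tested in dose-response at 0.5, 1, 5, 10, 20 and 40 μM, with two replicates per point.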

Row | SMILES | Burkin Assay in Myoblasts, value relative to DMSO ([1]; 0.5 uM) | Burkin Assay in Myoblasts, value relative to DMSO ([1]; 1 uM) | Burkin Assay in Myoblasts, value relative to DMSO ([1]; 5 uM) | Burkin Assay in Myoblasts, value relative to DMSO ([1]; 10 uM) | Burkin Assay in Myoblasts, value relative to DMSO ([1]; 20 uM) | Burkin Assay in Myoblasts, value relative to DMSO ([1]; 40 uM) | Burkin Assay in Myotubes (signal relative to DMSO) ([2]; 0.5 uM) | Burkin Assay in Myotubes (signal relative to DMSO) ([2]; 1 uM) | Burkin Assay in Myotubes (signal relative to DMSO) ([2]; 5 uM) | Burkin Assay in Myotubes (signal relative to DMSO) ([2]; 10 uM) | Burkin Assay in Myotubes (signal relative to DMSO) ([2]; 20 uM) | Burkin Assay in Myotubes (signal relative to DMSO) ([2]; 40 uM) | CMV-LACZ in Myotubes, signal relative to DMSO ([3]; 5 uM) | CMV-LACZ in Myotubes, signal relative to DMSO ([3]; 10 uM) | CMV-LACZ in Myotubes, signal relative to DMSO ([3]; 20 uM) | CMV-LACZ in Myotubes, signal relative to DMSO ([3]; 40 uM) | Burkin Assay in Myoblasts, signal relative to DMSO ([1]; 0.5 uM) | Burkin Assay in Myoblasts, signal relative to DMSO ([1]; 1 uM) | Burkin Assay in Myoblasts, signal relative to DMSO ([1]; 5 uM) | Burkin Assay in Myoblasts, signal relative to DMSO ([1]; 10 uM) | other results
1 | COC(=O)c1ccc(C2C(C(=O)c3cc4ccccc4o3)=C(O)C(=O)N2CCN2CCOCC2)cc1 (stereo not shown) [MLS001146463-01] | 1.026 | 0.9781 | 0.9027 | 0.9293 | 0.7318 | 0.8061 | 0.8827 | 0.8032 | 1.216 | 0.7514 | 0.8465 | 0.8424 | 1.074 | 0.9392 | 1.06 | 1.141 |  |  |  |  | 
2 | Cc1cccc(NC(=O)c2ccc(N3C(=O)C4CCCCC4C3=O)cc2)c1C (stereo not shown) [MLS001147727-01] |  |  |  |  |  |  |  |  |  |  |  |  | 1.12 | 0.9069 | 1.2365 | 1.1835 | 1.212 | 1.039 | 1.029 | 0.8892 | Burkin Assay in Myoblasts, signal relative to DMSO ([1]; 20 uM): 1.128; Burkin Assay in Myoblasts, signal relative to DMSO ([1]; 40 uM): 0.9044; Burkin Assay in Myotubes, α7 integrin LacZ reporter signal relative to DMSO ([2]; 0.5 uM): 0.9937; Burkin Assay in Myotubes, α7 integrin LacZ reporter signal relative to DMSO ([2]; 1 uM): 0.7877; Burkin Assay in Myotubes, α7 integrin LacZ reporter signal relative to DMSO ([2]; 5 uM): 1.101; Burkin Assay in Myotubes, α7 integrin LacZ reporter signal relative to DMSO ([2]; 10 uM): 0.9716; Burkin Assay in Myotubes, α7 integrin LacZ reporter signal relative to DMSO ([2]; 20 uM): 1.11; Burkin Assay in Myotubes, α7 integrin LacZ reporter signal relative to DMSO ([2]; 40 uM): 0.9652
3 | COc1ccc(-c2csc3ncnc(N4CCN(c5ccccc5[N+](=O)[O-])CC4)c23)cc1 [MLS001149811-01] | 0.6497 | 0.8888 | 1.01 | 1.022 | 1 | 0.6172 | 0.957 | 0.9993 | 0.9434 | 0.9086 | 0.8456 | 0.5432 |  |  |  |  |  |  |  |  | CMV-LACZ in Myotubes (β-galactosidase activity relative to DMSO) ([3]; 5 uM): 0.9566; CMV-LACZ in Myotubes (β-galactosidase activity relative to DMSO) ([3]; 10 uM): 1.048; CMV-LACZ in Myotubes (β-galactosidase activity relative to DMSO) ([3]; 20 uM): 1.122; CMV-LACZ in Myotubes (β-galactosidase activity relative to DMSO) ([3]; 40 uM): 1.65
4 | COc1ccc(S(=O)(=O)N2CCCCCC2)cc1C(=O)N1CCN(c2ccccc2O)CC1 [MLS001150751-01] |  |  |  |  |  |  |  |  |  |  |  |  | 0.9134 | 0.8336 | 0.992 | 0.889 | 1.114 | 1.059 | 0.9941 | 0.9573 | Burkin Assay in Myoblasts, signal relative to DMSO ([1]; 20 uM): 1.079; Burkin Assay in Myoblasts, signal relative to DMSO ([1]; 40 uM): 0.8454; Burkin Assay in Myotubes, α7 integrin LacZ reporter signal relative to DMSO ([2]; 0.5 uM): 1.0993; Burkin Assay in Myotubes, α7 integrin LacZ reporter signal relative to DMSO ([2]; 1 uM): 0.9504; Burkin Assay in Myotubes, α7 integrin LacZ reporter signal relative to DMSO ([2]; 5 uM): 1.254; Burkin Assay in Myotubes, α7 integrin LacZ reporter signal relative to DMSO ([2]; 10 uM): 1.023; Burkin Assay in Myotubes, α7 integrin LacZ reporter signal relative to DMSO ([2]; 20 uM): 1.0842; Burkin Assay in Myotubes, α7 integrin LacZ reporter signal relative to DMSO ([2]; 40 uM): 0.5343
5 | O=C(COc1cc2oc(=O)c3c(c2cc1Cl)CCCC3)NCC1CCC(C(=O)O)CC1 (stereo not shown) [MLS001157804-01] | 0.879 | 0.9385 | 0.998 | 1.117 | 1.052 | 1.104 | 1.045 | 1.013 | 1.031 | 1.083 | 1.069 | 1.188 | 0.703 | 0.9842 | 1.05 | 1.07 |  |  |  |  | 
6 | Cc1ccc(C(=O)C(C)OC(=O)CNC(=O)c2ccc(Br)o2)cc1 (stereo not shown) [MLS001160885-01] |  |  |  |  |  |  |  |  |  |  |  |  | 1.167 | 0.9009 | 0.9095 | 0.8319 | 1.05 | 0.9356 | 0.9402 | 0.9147 | Burkin Assay in Myoblasts, signal relative to DMSO ([1]; 20 uM): 1.021; Burkin Assay in Myoblasts, signal relative to DMSO ([1]; 40 uM): 0.7914; Burkin Assay in Myotubes, α7 integrin LacZ reporter signal relative to DMSO ([2]; 0.5 uM): 1; Burkin Assay in Myotubes, α7 integrin LacZ reporter signal relative to DMSO ([2]; 1 uM): 0.9569; Burkin Assay in Myotubes, α7 integrin LacZ reporter signal relative to DMSO ([2]; 5 uM): 1.108; Burkin Assay in Myotubes, α7 integrin LacZ reporter signal relative to DMSO ([2]; 10 uM): 1.146; Burkin Assay in Myotubes, α7 integrin LacZ reporter signal relative to DMSO ([2]; 20 uM): 1.018; Burkin Assay in Myotubes, α7 integrin LacZ reporter signal relative to DMSO ([2]; 40 uM): 0.92
7 | CC(Oc1ccccc1)C(=O)N1CCN(C(=O)C(C)Oc2ccccc2)CC1 (stereo not shown) [MLS001162337-01] | 1.123 | 1.127 | 1.091 | 1.071 | 0.8789 | 0.8149 | 0.6986 | 0.885 | 1.009 | 0.9738 | 1.17 | 1.014 | 0.9904 | 0.9593 | 0.8491 | 1.05 |  |  |  |  | 
8 | COc1cc(Cl)cc(CN2CCC(CCC(=O)NC3CC3)CC2)c1OC [MLS001162872-01] | 0.9547 | 0.949 | 0.9025 | 0.904 | 0.783 | 0.7773 | 1.13 | 1.051 | 0.8369 | 1.031 | 1.034 | 0.8876 | 0.7855 | 1.084 | 1.061 | 0.9794 |  |  |  |  | 
9 | CCCCS(=O)(=O)N1CCCC(C(=O)NCCc2ccccc2)C1 (stereo not shown) [MLS001163121-01] | 1.049 | 1.012 | 0.9488 | 0.9907 | 0.8074 | 0.9157 | 1.052 | 0.9895 | 0.9395 | 1.173 | 1.07 | 1.09 |  |  |  |  |  |  |  |  | CMV-LACZ in Myotubes (β-galactosidase activity relative to DMSO) ([3]; 5 uM): 0.8506; CMV-LACZ in Myotubes (β-galactosidase activity relative to DMSO) ([3]; 10 uM): 0.8294; CMV-LACZ in Myotubes (β-galactosidase activity relative to DMSO) ([3]; 20 uM): 0.8781; CMV-LACZ in Myotubes (β-galactosidase activity relative to DMSO) ([3]; 40 uM): 0.9211
10 | COc1ccccc1-c1coc2c(CN3C(C)CCCC3C)c(O)ccc2c1=O (stereo not shown) [MLS001163140-01] | 1.019 | 1.217 | 0.9966 | 1.098 | 0.935 | 0.9829 | 0.9236 | 1.035 | 0.9282 | 1.1264 | 0.9651 | 1.011 | 1.029 | 1.061 | 0.9159 | 1.19 |  |  |  |  | 
